Earlier results in patent publication US8529935B2, “Antibacterial hydrogel and use thereof in orthopedics” (Mero S.R.L., priority 2009, dated 2013).

Settings: known from the literature

Row | SMILES | minimum inhibiting concentration (MIC)
1 | NC[C@H]1O[C@H](O[C@H]2[C@H](O)[C@@H](O[C@H]3O[C@H](CO)[C@@H](O)[C@H](N)[C@H]3O)[C@H](N)C[C@@H]2N)[C@H](N)C[C@@H]1O [tobramycin] | about 1 mg/l
2 | CN[C@H](CC(C)C)C(=O)N[C@H]1C(=O)N[C@@H](CC(N)=O)C(=O)N[C@H]2C(=O)N[C@H]3C(=O)N[C@H](C(=O)N[C@H](C(=O)O)c4cc(O)cc(O)c4-c4cc3ccc4O)[C@H](O)c3ccc(c(Cl)c3)Oc3cc2cc(c3O[C@@H]2O[C@H](CO)[C@@H](O)[C@H](O)[C@H]2O[C@H]2C[C@](C)(N)[C@H](O)[C@H](C)O2)Oc2ccc(cc2Cl)[C@H]1O [vancomycin] | 1.56 to 3.12 µg/mL
